Assay results published in patent US20260226025A1, “PHARMACEUTICALLY ACCEPTABLE SALT AND CRYSTAL FORM OF TRIAZOLE COMPOUND, AND PREPARATION METHOD THEREFOR” (JIANGSU HENGRUI PHARMACEUTICALS CO., LTD., priority 2023, published 2026).

Key:
Type in all cases: physicochemical
[1] = Influencing factor stability study (open containers; light, high temperature, high humidity); details: for physical and chemical stability (conclusion): standing for 1 month, influencing factor conditions
Protocol: Samples of the free-state crystal forms A and B of the compound represented by formula I were spread in open containers and left to stand under light exposure (4500 Lux), high temperature (40° C. and 60° C.), and high humidity (RH 75% and RH 93%) conditions for 1 month to study their stability.
Samples of the crystal forms I and II of the sodium salt of the compound represented by formula I were spread in open containers and left to stand under light exposure (4500 Lux), high temperature (40° C. and 60° C.), and high humidity (RH 75%) conditions for 1 month to study their stability.

[2] = Long-term/accelerated stability; details: for physical and chemical stability (conclusion): long-term accelerated conditions for 6 months
[3] = DVS (dynamic vapor sorption) hygroscopicity test
Protocol: The MS analyses were performed using an Agilent 1200/1290 DAD-6110/6120 Quadrupole MS liquid chromatography-mass spectrometry system (manufacturer: Agilent; MS model: 6110/6120 Quadrupole MS), waters ACQuity UPLC-QD/SQD (manufacturer: waters; MS model: waters ACQuity Qda Detector/waters SQ Detector), and THERMO Ultimate 3000-Q Exactive (manufacturer: THERMO; MS model: THERMO Q 15 Exactive). The HPLC analyses were performed using an Agilent 1260DAD high pressure liquid chromatograph (Sunfire C18 150×4.6 mm chromatography column) and a Thermo U3000 high pressure liquid chromatograph (Gimini C18 150× 4.6 mm chromatography column). XRPD refers to X-ray powder diffraction: The analysis was performed using a BRUKER D8 X-ray diffractometer; specific acquisition information: a Cu anode (40 kV, 40 mA), ray: monochromatic Cu-Ka ray (1=1.5418 Å). Scan mode: θ/2θ; scan range: 3-48°. DSC refers to differential scanning calorimetry: The analysis was performed using a METTLER TOLEDO DSC 3+ differential scanning calorimeter, with a temperature ramp rate of 10° C./min, specific temperature ranges shown in corresponding patterns (mostly 25° C.-300° C.), and a nitrogen purge speed of 50 mL/min. TGA refers to thermogravimetric analysis: The analysis was performed using a METTLER TOLEDO TGA 2 thermogravimetric analyzer, with a temperature ramp rate of 10° C./min, specific temperature ranges shown in corresponding patterns (mostly 30° C.-400° C.), and a nitrogen purge speed of 50 mL/min. DVS refers to dynamic vapor sorption: Surface Measurement Systems instrinsic was adopted; the humidity started at 50%, the humidity range of the investigation was 0%-95%, and the humidity was increased in increments of 10%; the criterion was as follows: each gradient mass change dM/dT≤0.002%; TMAX 360 min, two cycles.

[4] = 25° C./60% RH, 1 month, listed as Free-state crystal form A
[5] = 25° C./60% RH, 2 months, listed as Free-state crystal form A
[6] = 25° C./60% RH, 3 months, listed as Free-state crystal form A
[7] = 25° C./60% RH, 6 months, listed as Free-state crystal form A
[8] = 40° C./75% RH, 1 month, listed as Free-state crystal form A
[9] = 40° C./75% RH, 2 months, listed as Free-state crystal form A
[10] = 40° C./75% RH, 3 months, listed as Free-state crystal form A
[11] = 40° C./75% RH, 6 months, listed as Free-state crystal form A
[12] = Initial, 0, listed as Free-state crystal form A
[13] = accelerated experimental conditions, 70% RH
[14] = normal storage conditions, 25° C. and 60% RH
[15] = 25° C./60% RH, 1 month, listed as Free-state crystal form B
[16] = 25° C./60% RH, 2 months, listed as Free-state crystal form B
[17] = 25° C./60% RH, 3 months, listed as Free-state crystal form B
[18] = 25° C./60% RH, 6 months, listed as Free-state crystal form B
[19] = 40° C./75% RH, 1 month, listed as Free-state crystal form B
[20] = 40° C./75% RH, 2 months, listed as Free-state crystal form B
[21] = 40° C./75% RH, 3 months, listed as Free-state crystal form B
[22] = 40° C./75% RH, 6 months, listed as Free-state crystal form B
[23] = Initial, 0, listed as Free-state crystal form B

COCc1ccnc(OCc2c(-c3ccc(O[C@H]4C[C@@H]5CC[C@H](C(=O)O)[C@@H]5C4)c(C)n3)nnn2C)n1 [Crystal form A, (1S,3aS,5S,6aR)-5-((6-(5-(((4-(methoxymethyl)pyrimidin-2-yl)oxy)methyl)-1-methyl-1H-1,2,3-triazol-4-yl)-2-methylpyridin-3-yl)oxy) octahydropentalene-1-carboxylic acid]
Crystal form ([1]; 40° C., 1 month): Crystal form A | Purity % ([1]; 40° C., 1 month): 98.6% | Crystal form ([1]; 40° C., 7 days): Crystal form A | Purity % ([1]; 40° C., 7 days): 98.6% | Crystal form ([1]; 40° C., 14 days): Crystal form A | Purity % ([1]; 40° C., 14 days): 98.6% | Crystal form ([1]; 60° C., 1 month): Crystal form A | Purity % ([1]; 60° C., 1 month): 98.6% | Crystal form ([1]; 60° C., 7 days): Crystal form A | Purity % ([1]; 60° C., 7 days): 98.6% | Crystal form ([1]; 60° C., 14 days): Crystal form A | Purity % ([1]; 60° C., 14 days): 98.6% | Crystal form ([1]; 75% RH, 1 month): Crystal form A | Purity % ([1]; 75% RH, 1 month): 98.6% | Crystal form ([1]; 75% RH, 7 days): Crystal form A | Purity % ([1]; 75% RH, 7 days): 98.6% | Crystal form ([1]; 75% RH, 14 days): Crystal form A | Purity % ([1]; 75% RH, 14 days): 98.6% | Crystal form ([1]; 93% RH, 1 month): Crystal form A | Purity % ([1]; 93% RH, 1 month): 98.6% | Crystal form ([1]; 93% RH, 7 days): Crystal form A | Purity % ([1]; 93% RH, 7 days): 98.6% | Crystal form ([1]; 93% RH, 14 days): Crystal form A | Purity % ([1]; 93% RH, 14 days): 98.6% | Crystal form ([1]; 4500 Lux, 1 month): Crystal form A | Purity % ([1]; 4500 Lux, 1 month): 97.0% | Crystal form ([1]; 4500 Lux, 7 days): Crystal form A | Purity % ([1]; 4500 Lux, 7 days): 98.3% | Crystal form ([1]; 4500 Lux, 14 days): Crystal form A | Purity % ([1]; 4500 Lux, 14 days): 98.1% | Crystal form ([1]; Initial, 0 days): Crystal form A | Purity % ([1]; Initial, 0 days): 98.6% | physical and chemical stability (conclusion) [1]: good physical and chemical stability | Crystal form [2, 4]: Crystal form A | Purity % [2, 4]: 98.6% | Crystal form [2, 5]: Crystal form A | Purity % [2, 5]: 98.6% | Crystal form [2, 6]: Crystal form A | Purity % [2, 6]: 98.6% | Crystal form [2, 7]: Crystal form A | Purity % [2, 7]: 98.6% | Crystal form [2, 8]: Crystal form A | Purity % [2, 8]: 98.6% | Crystal form [2, 9]: Crystal form A | Purity % [2, 9]: 98.6% | Crystal form [2, 10]: Crystal form A | Purity % [2, 10]: 98.6% | Crystal form [2, 11]: Crystal form A | Purity % [2, 11]: 98.6% | Crystal form [2, 12]: Crystal form A | Purity % [2, 12]: 98.6% | physical and chemical stability (conclusion) [2]: good physical and chemical stability | hygroscopic weight gain [3, 13]: about 0.20% | crystal form re-identified after the DVS test [3]: its crystal form did not change | hygroscopic weight gain ([3]; extreme conditions, 90% RH): about 0.37% | hygroscopic weight gain [3, 14]: about 0.17%

COCc1ccnc(OCc2c(-c3ccc(O[C@H]4C[C@@H]5CC[C@H](C(=O)O)[C@@H]5C4)c(C)n3)nnn2C)n1 [Crystal form B, (1S,3aS,5S,6aR)-5-((6-(5-(((4-(methoxymethyl)pyrimidin-2-yl)oxy)methyl)-1-methyl-1H-1,2,3-triazol-4-yl)-2-methylpyridin-3-yl)oxy) octahydropentalene-1-carboxylic acid]
Crystal form ([1]; 40° C., 1 month): Crystal form B | Purity % ([1]; 40° C., 1 month): 97.7% | Crystal form ([1]; 40° C., 7 days): Crystal form B | Purity % ([1]; 40° C., 7 days): 97.7% | Crystal form ([1]; 40° C., 14 days): Crystal form B | Purity % ([1]; 40° C., 14 days): 97.7% | Crystal form ([1]; 60° C., 1 month): Crystal form B | Purity % ([1]; 60° C., 1 month): 97.7% | Crystal form ([1]; 60° C., 7 days): Crystal form B | Purity % ([1]; 60° C., 7 days): 97.7% | Crystal form ([1]; 60° C., 14 days): Crystal form B | Purity % ([1]; 60° C., 14 days): 97.7% | Crystal form ([1]; 75% RH, 1 month): Crystal form B | Purity % ([1]; 75% RH, 1 month): 97.7% | Crystal form ([1]; 75% RH, 7 days): Crystal form B | Purity % ([1]; 75% RH, 7 days): 97.7% | Crystal form ([1]; 75% RH, 14 days): Crystal form B | Purity % ([1]; 75% RH, 14 days): 97.7% | Crystal form ([1]; 93% RH, 1 month): Crystal form B | Purity % ([1]; 93% RH, 1 month): 97.7% | Crystal form ([1]; 93% RH, 7 days): Crystal form B | Purity % ([1]; 93% RH, 7 days): 97.7% | Crystal form ([1]; 93% RH, 14 days): Crystal form B | Purity % ([1]; 93% RH, 14 days): 97.7% | Crystal form ([1]; 4500 Lux, 1 month): Crystal form B | Purity % ([1]; 4500 Lux, 1 month): 97.0% | Crystal form ([1]; 4500 Lux, 7 days): Crystal form B | Purity % ([1]; 4500 Lux, 7 days): 97.7% | Crystal form ([1]; 4500 Lux, 14 days): Crystal form B | Purity % ([1]; 4500 Lux, 14 days): 97.5% | Crystal form ([1]; Initial, 0 days): Crystal form B | Purity % ([1]; Initial, 0 days): 97.7% | physical and chemical stability (conclusion) [1]: good physical and chemical stability | Crystal form [2, 15]: Crystal form B | Purity % [2, 15]: 97.7% | Crystal form [2, 16]: Crystal form B | Purity % [2, 16]: 97.7% | Crystal form [2, 17]: Crystal form B | Purity % [2, 17]: 97.7% | Crystal form [2, 18]: Crystal form B | Purity % [2, 18]: 97.7% | Crystal form [2, 19]: Crystal form B | Purity % [2, 19]: 97.7% | Crystal form [2, 20]: Crystal form B | Purity % [2, 20]: 97.7% | Crystal form [2, 21]: Crystal form B | Purity % [2, 21]: 97.7% | Crystal form [2, 22]: Crystal form B | Purity % [2, 22]: 97.7% | Crystal form [2, 23]: Crystal form B | Purity % [2, 23]: 97.7% | physical and chemical stability (conclusion) [2]: good physical and chemical stability | hygroscopic weight gain [3, 13]: about 0.31% | crystal form re-identified after the DVS test [3]: its crystal form did not change | hygroscopic weight gain ([3]; extreme conditions, 90% RH): about 0.64% | hygroscopic weight gain [3, 14]: about 0.25%
